In article PMC10298530, “Synthesis and Anticancer Activity of A-Ring-Modified Derivatives of Dihydrobetulin” (International Journal of Molecular Sciences, 2023):
Values joined by “and” are separate entries in the source; they are usually repeats but may differ in a detail not shown here. Identical values can stand only once. Like-named read-outs stand apart in the source and are kept apart here.

Assays:
HEK293 = assay: MTT cell viability assay, HEK293; format: cell-based; details: Homo sapiens
Description: Blokhin National Medical Research Center of Oncology (the Ministry of Health of the Russian Federation, Moscow).

HBL-100/Dox = assay: MTT cell viability assay, HBL-100/Dox; format: cell-based, human
Method: The cells were cultured in a humidified CO2 incubator (model 460-CE; Thermo Fisher Scientific, Waltham, MA, USA) at +37 °C and 5% CO2.
The percentage of the viable cells was calculated according to the following equation: cell viability (%) = 100 × (mean absorbance in the treatment group/mean absorbance in the control group). The results were expressed pictorially using Prism 6.0 (GraphPad Software, Boston, MA, USA).

HBL-100/Dox cells [1] = assay: Combined action of compounds, MTT assay on HBL-100/Dox cells; format: cell-based, human
Description: The results were expressed pictorially using Prism 6.0 (GraphPad Software, Boston, MA, USA).

HBL-100/Dox cells [2] = assay: Cell cycle analysis (DAPI, flow cytometry), HBL-100/Dox; format: cell-based, human; details: for Cell cycle of HBL-100/Dox, G0/G1 / Cell cycle of HBL-100/Dox, G2/M / Cell cycle of HBL-100/Dox, subG0/G1 / Cell cycle of HBL-100/Dox, S-phase: dose = IC50
Method: The cells were trypsinized and rinsed with the growth medium. Then, the cells were harvested by centrifugation at 500× g for 3 min, and the supernatant was discarded. The cells were washed with PBS (PanEco, Moscow, Russia) twice and centrifuged under similar conditions. The cells were resuspended in 500 μL of PBS, put into centrifuge tubes and fixed by adding 4.5 mL of 70% ethanol dropwise (on ice). The samples were fixed at 4 °C. Overnight, the fixed cells were centrifugally collected (1000× g, 4 °C, 5 min) and washed again with PBS. The cells were finally resuspended in DAPI with 0.1% Triton X-100 in PBS solution (10 μg/mL, Sigma–Aldrich, St. Louis, MO, USA), and stained for 30 min at room temperature in darkness. For each sample, at least 50,000 cells were analyzed using the CytoFlex S flow cytometer (Beckman Coulter, Brea, CA, USA). Cell cycle populations were quantified from DNA histograms with the FlowJo software (ver. X 10.0.7r2, FlowJo Software, San Jose, CA, USA).

HBL-100/Dox cells [3] = assay: Hoechst 33342 / TMRE fluorescent microscopy, HBL-100/Dox; format: cell-based, human
Method: (§1) The DNA marker, termed Hoechst 33342 Ready Flow Reagent, was used as a stock solution (Invitrogen, ThermoFisher Scientific, USA). The mitochondrial marker, LumiTracker Mito TMRE (tetramethylrhodamine, ethyl ester; Lumiprobe, Moscow, Russia), was dissolved in DMSO as 1.0 mM stock solution. The marker of reactive oxygen species, H2DCFDA (Lumiprobe, Moscow, Russia), was dissolved in DMSO as 100.0 μM stock solution. After incubation, the cells were incubated with FBS-free culture medium containing the dye mixture of Hoechst 33342 (final concentration 1.0 μM) and LumiTracker Mito TMRE (final concentration 1.0 μM), or H2DCFDA dye taken alone (final concentration 1.0 μM), for 30 min at 37 °C in darkness. Fluorescence, at 420 nm (Hoechst 33342), at 510 nm (TMRE), and at 575 nm (H2DCFDA), of the test cultures (including controls) was analyzed immediately using a fluorescence microscope CKX 53 (Olympus, Tokyo, Japan). The TMRE fluorescence intensity was quantified using Fiji (ImageJ).

HBL-100/Dox cells [4] = assay: ROS by H2DCFDA fluorescent staining, HBL-100/Dox; format: cell-based, human; details: MK 1.8 μM, 4 h
Method: as §1

[5] = system: Active Caspase-3 in HBL-100/Dox cells; assay: Flow cytometric analysis of active caspase-3, HBL-100/Dox; format: cell-based, human; details: for gMIF, Active Caspase-3: 24 h
Method: The cells were detached with accutase (HiMedia Laboratories, Maharashtra, India) and then fixed with 70% ice cold ethanol followed by overnight incubation at 4 °C. The cells were washed twice with PBS, permeabilized using 0.1% Triton X-100 in PBS solution, and subsequently stained with 5 μL of the BD Horizon™ BV605 Rabbit Anti-Active Caspase-3 antibody (BD Biosciences, Franklin Lakes, NJ, USA). The cells were then washed, resuspended in PBS, and analyzed using a CytoFlex S flow cytometer (Beckman Coulter, Brea, CA, USA). Cell fluorescence was evaluated on a CytoFlex S flow cytometer (Beckman Coulter, Brea, CA, USA). The results were analyzed using FlowJo software (ver. X 10.0.7r2, FlowJo Software, San Jose, CA, USA) and represented as geometric mean fluorescence intensity (gMFI).

human cancer cell lines = assay: MTT assay, panel of cancer cell lines; details: for IC50: Homo sapiens
Method: In this study, the human embryonic kidney cell line HEK293 was used as the non-cancerous cell line.
To investigate the cytotoxic activity of the compounds under study, the MTT colorimetric assay [45] was performed. […] After 72 h, 20 μL of 5 mg/mL solution of MTT (PanEco, Moscow, Russia), in sterile phosphate-buffered saline (PBS; PanEco, Moscow, Russia), was added to each well and further incubated for 4 h. Then, the medium with the compounds was removed, and the formed formazan crystals were dissolved in 100 μL of DMSO. […] The IC50 values were determined from dose-dependent curves, using Prism 6.0 (GraphPad Software, Boston, MA, USA).

COC(=O)[C@]12CC[C@@H](C(C)C)[C@@H]1[C@H]1CC[C@@H]3[C@@](C)(CCC#N)[C@H](C(=O)C(Br)Br)CC[C@@]3(C)[C@]1(C)CC2 [compound 31, 2-Cyano-24,24-dibromo-4-oxo-3,4-seco-3,23-dinorlupan-28-oic acid methyl ester]
IC50 (HEK293; HEK293, MTT, 72 h of treatment, read-out: IC50 Values (Mean ± SD)): 11.5 ± 0.6 µM
IC50 (HEK293; Table S1, HEK293, read-out: IC50 (mean ± SD)): 11.5 ± 0.56 µM
death of the cells (HBL-100/Dox; HBL-100/Dox, MK at IC50 dose, after 72 h exposure): 50%
IC50 (HBL-100/Dox; Homo sapiens, HBL-100, 72 h, read-out: IC50 Values (Mean ± SD)): 1.8 ± 0.1 µM
Selectivity index (SI) (HBL-100/Dox; ratio of IC50 values healthy (HEK293) / HBL-100/Dox): 6.39
number of living cells, compound vs its combination with verapamil (HBL-100/Dox cells [1]; 72 h, 30 μM verapamil): remained unchanged
potentiation in the effectiveness of Dox (HBL-100/Dox cells [1]; MK 0.6 μM combined with Dox): no potentiation
Cell cycle of HBL-100/Dox, G0/G1 (HBL-100/Dox cells [2]; 12 h): 50.93±0.43%
Cell cycle of HBL-100/Dox, G2/M (HBL-100/Dox cells [2]; 12 h): 18.38±0.34%
Cell cycle of HBL-100/Dox, subG0/G1 (HBL-100/Dox cells [2]; 12 h): 4.84 ± 1.48%
Cell cycle of HBL-100/Dox, S-phase (HBL-100/Dox cells [2]; 12 h, listed as MK): 30.69 ± 0.99% and 30.69±0.04%
Cell cycle of HBL-100/Dox, G0/G1 (HBL-100/Dox cells [2]; 13 h): 47.82±0.67%
Cell cycle of HBL-100/Dox, G2/M (HBL-100/Dox cells [2]; 13 h): 17.42±0.46%
Cell cycle of HBL-100/Dox, S-phase (HBL-100/Dox cells [2]; 13 h): 34.76±0.20%
Cell cycle of HBL-100/Dox, subG0/G1 (HBL-100/Dox cells [2]; 13 h): 4.89±0.48%
Cell cycle of HBL-100/Dox, G0/G1 (HBL-100/Dox cells [2]; 14 h): 51.68±1.34%
Cell cycle of HBL-100/Dox, G2/M (HBL-100/Dox cells [2]; 14 h): 14.54±0.25%
Cell cycle of HBL-100/Dox, S-phase (HBL-100/Dox cells [2]; 14 h): 33.78±1.08%
Cell cycle of HBL-100/Dox, subG0/G1 (HBL-100/Dox cells [2]; 14 h): 4.87±0.60%
Cell cycle of HBL-100/Dox, G0/G1 (HBL-100/Dox cells [2]; 15 h): 52.12±1.18%
Cell cycle of HBL-100/Dox, G2/M (HBL-100/Dox cells [2]; 15 h): 14.52±1.40%
Cell cycle of HBL-100/Dox, S-phase (HBL-100/Dox cells [2]; 15 h): 33.36±2.57%
Cell cycle of HBL-100/Dox, subG0/G1 (HBL-100/Dox cells [2]; 15 h): 5.06±0.09%
Cell cycle of HBL-100/Dox, G0/G1 (HBL-100/Dox cells [2]; 16 h): 51.84±0.88%
Cell cycle of HBL-100/Dox, G2/M (HBL-100/Dox cells [2]; 16 h): 22.22±1.70%
Cell cycle of HBL-100/Dox, S-phase (HBL-100/Dox cells [2]; 16 h): 25.94±2.58%
Cell cycle of HBL-100/Dox, subG0/G1 (HBL-100/Dox cells [2]; 16 h): 6.55±0.11%
Cell cycle of HBL-100/Dox, G0/G1 (HBL-100/Dox cells [2]; 17 h): 52.16 ± 1.94%
Cell cycle of HBL-100/Dox, G2/M (HBL-100/Dox cells [2]; 17 h): 19.82±0.60%
Cell cycle of HBL-100/Dox, S-phase (HBL-100/Dox cells [2]; 17 h): 28.02±1.34%
Cell cycle of HBL-100/Dox, subG0/G1 (HBL-100/Dox cells [2]; 17 h): 9.08±0.39%
Cell cycle of HBL-100/Dox, G0/G1 (HBL-100/Dox cells [2]; 18 h): 57.26±1.18%
Cell cycle of HBL-100/Dox, G2/M (HBL-100/Dox cells [2]; 18 h): 25.55±1.12%
Cell cycle of HBL-100/Dox, S-phase (HBL-100/Dox cells [2]; 18 h): 17.19±2.31%
Cell cycle of HBL-100/Dox, subG0/G1 (HBL-100/Dox cells [2]; 18 h): 10.42±0.98%
Cell cycle of HBL-100/Dox, G0/G1 (HBL-100/Dox cells [2]; 24 h): 64.14 ± 0.55%
Cell cycle of HBL-100/Dox, S-phase (HBL-100/Dox cells [2]; 24 h): 8.99 ± 0.42%
Cell cycle of HBL-100/Dox, G2/M (HBL-100/Dox cells [2]; 24 h, listed as MK): 26.87 ± 1.13% and 26.87±0.13%
Cell cycle of HBL-100/Dox, subG0/G1 (HBL-100/Dox cells [2]; 24 h, listed as MK): 13.47 ± 2.44% and 13.47±0.18%
effect on cell cycle progression (HBL-100/Dox cells [2]; HBL-100/Dox (resistant) cells, 12-24 h, IC50): blocked or slowed down the cell cycle progression through the G0/G1 phase
mitochondrial membrane potential (MMP), TMRE fluorescence intensity (HBL-100/Dox cells [3]; 16 h, vs untreated control): significant (p < 0.05) reduction in MMP
number of cells with nuclear morphology changes (HBL-100/Dox cells [3]; Hoechst 33342, 16 h, IC50 values (MK 1.8 µM)): 33.1%
ROS generation, H2DCFDA staining (HBL-100/Dox cells [4]): significantly heightened the ROS generation
gMIF, Active Caspase-3 ([5]; dose 2×IC50): 19252±347
gMIF, Active Caspase-3 ([5]; dose IC50): 13428±202
caspase-3 activation in comparison to the HBL-100 cells ([5]; after 24 h of MK treatment): doubly pronounced
IC50 (human cancer cell lines; read-out: IC50 values (range)): 0.7 to 7.1 µM
IC50 (human cancer cell lines; read-out: cytotoxicity (IC50 range)): 0.7 to 16.6 µM
cytotoxicity in the screening studies (human cancer cell lines; MTT screening, Table S1): pronounced cytotoxic effect
SI (range) (human cancer cell lines; against HBL-100/Dox, HBL-100, and RD TE32 cells): 6.39–16.43
